Measured values from publication PMC7522982, “PKIS deep dive yields a chemical starting point for dark kinases and a cell active BRSK2 inhibitor” (Scientific Reports, 2020).

What was measured:
[1] = test system: RSK3; set-up: method as in earlier work; conditions: cited from earlier work
[2] = target: TNIK (Homo sapiens, UniProt Q9UKE5); test: DiscoverX scanMAX competition binding assay; set-up: purchased Eurofins DiscoverX (scanMAX) / Eurofins enzymatic assays
Text: Based on its narrow profile when tested in the combined Nanosyn and TSA panels, GW296115 was included in the recently released Kinase Chemogenomic Set (KCGS)[15]. All of the data presented in the Introduction section was collected prior to the inclusion of GW296115 in KCGS and everything that follows has been subsequently generated. Since its inclusion in PKIS and more recently KCGS, we have carried out a broader round of screening at DiscoverX. This profiling data has not been previously released and is reported here for the first time. GW296115 was profiled against 403 wild type human kinases at 1 μM using the DiscoverX scanMAX screening platform, which employs an active site-directed competition binding assay to quantitatively measure interactions between test compounds and kinases, [16]. GW296115 inhibited 25 kinases > 90% at 1 μM, resulting in a selectivity index (S10) of 0.062 at 1 μM (Table S2, Fig. 1C)[17].
The scanMAX assays were performed at Eurofins DiscoverX Corporation as previously described.

[3] = target: PIM3 (Homo sapiens, UniProt Q86V86); set-up: purchased Eurofins; method as in earlier work; conditions: cited from earlier work
[4] = test system: BRSK2-induced phosphorylation; test: Western blot of BRSK2-induced phosphorylation in HEK293T cells; type: cell-based
Text: With confirmed cellular activity, we next focused on characterizing the pathways mediated by BRSK2 utilizing GW296115. BRSK2 has a similar kinase domain to AMPK and is activated by LKB1-mediated phosphorylation in the active site at T174[24]–[26]. As previously reported, BRSK2 induces phosphorylation of AMPK substrates. Therefore, we asked whether this BRSK2-induced phosphorylation of AMPK substrates is ablated by GW296115. First, we evaluated the effect of GW296115 on AMPK substrate phosphorylation in HEK293T cells overexpressing wild-type or kinase-dead BRSK2 (Fig. 3B). Specifically, we overexpressed two different kinase-dead BRSK2 constructs, K48A and T174A, and treated cells with 2.5 μM of GW296115 for 2 or 6 h. Compared to cells expressing hcRED control, wild-type BRSK2 overexpression induced AMPK substrate phosphorylation, as measured by phospho-S/T AMPK substrate antibody. This change was not observed when overexpressing kinase-dead variants. BRSK2-induced AMPK substrate phosphorylation was ablated with GW269115 treatment at both 2- and 6-h time-points.
Next we evaluated whether specific bona fide AMPK substrates were phosphorylated by BRSK2. Based on the total pS/T AMPK substrate blots, we decided to check known substrates that match the size of the most robust changes due to BRSK2 overexpression. UNC51-like kinase 1 (ULK1) is a 120 kDa kinase that is member of the autophagy initiation complex, and is phosphorylated by AMPK at multiple residues, S317 and S555, among others[27]–[29]. Therefore, we overexpressed wild type BRSK2 in HEK293T cells and measured changes in pULK1 S317 and S555 following treatment with increasing doses of GW296115 for 2 h. BRSK2 overexpression increased phosphorylation of ULK1 at S317, but not S555. […] However, in samples expressing control hcRED, treatment with GW296115 increased pAMPK T172. We also asked if activating phosphorylation of ULK1 leads to increased phosphorylation of downstream components of the autophagy complex. Therefore we evaluated phosphorylation of S351 on P62 (SQSTM1), which is a stress induced autophagy receptor for ubiquitylated cargo[30]. Due to its central role as a signaling hub, P62 accumulation and phosphorylation serves as a sensor for starvation, oxidative stress, and selective autophagy[30]–[32]. […] Moreover, these phosphorylation events were ablated by GW296115 in a dose dependent manner (Fig. 4B,C).
Western blots were carried out as described previously. HEK293T cells were plated in 6-well format and incubated at 37 °C with 5% CO2 for 12 h. Next, cells were transfected with 1.5 ug of plasmid per well for 24 h and treated with GW296115 (in DMSO). Samples were lysed using standard conditions of RIPA (10% glycerol, 50 mM Tris–HCL, 100 mM NaCl, 2 mM EDTA, 0.1% SDS, 1% Nonidet P-40, and 0.2% Sodium Deoxycholate) supplemented with protease inhibitor cocktail (ThermoFisher Scientific, 78429), phosphatase inhibitor cocktail (ThermoFisher Scientific, 78426), NEM (Thermo Scientific, 23030), and Benzonase (Sigma, E1014). Lysis was carried out on ice over the course of 30 min and resultant lysates were centrifuged at 4 °C for 15 min at 21,000×g. Following normalization of protein concentration via BCA (Pierce, 23225), samples were denatured in NuPAGE LDS buffer (Invitrogen, NP0007) plus 1 mM DTT. Blots were imaged with a LiCor Odyssey imager, and then quantified using ImageStudio 5.2. Finally, ANOVA with multiple comparison was performed for quantitated blots using Prism 8.2.4.

[5] = HEK293T overexpressing wild type BRSK2, increasing doses for 2 h

Chain of TNIK (Q9UKE5 whole entry): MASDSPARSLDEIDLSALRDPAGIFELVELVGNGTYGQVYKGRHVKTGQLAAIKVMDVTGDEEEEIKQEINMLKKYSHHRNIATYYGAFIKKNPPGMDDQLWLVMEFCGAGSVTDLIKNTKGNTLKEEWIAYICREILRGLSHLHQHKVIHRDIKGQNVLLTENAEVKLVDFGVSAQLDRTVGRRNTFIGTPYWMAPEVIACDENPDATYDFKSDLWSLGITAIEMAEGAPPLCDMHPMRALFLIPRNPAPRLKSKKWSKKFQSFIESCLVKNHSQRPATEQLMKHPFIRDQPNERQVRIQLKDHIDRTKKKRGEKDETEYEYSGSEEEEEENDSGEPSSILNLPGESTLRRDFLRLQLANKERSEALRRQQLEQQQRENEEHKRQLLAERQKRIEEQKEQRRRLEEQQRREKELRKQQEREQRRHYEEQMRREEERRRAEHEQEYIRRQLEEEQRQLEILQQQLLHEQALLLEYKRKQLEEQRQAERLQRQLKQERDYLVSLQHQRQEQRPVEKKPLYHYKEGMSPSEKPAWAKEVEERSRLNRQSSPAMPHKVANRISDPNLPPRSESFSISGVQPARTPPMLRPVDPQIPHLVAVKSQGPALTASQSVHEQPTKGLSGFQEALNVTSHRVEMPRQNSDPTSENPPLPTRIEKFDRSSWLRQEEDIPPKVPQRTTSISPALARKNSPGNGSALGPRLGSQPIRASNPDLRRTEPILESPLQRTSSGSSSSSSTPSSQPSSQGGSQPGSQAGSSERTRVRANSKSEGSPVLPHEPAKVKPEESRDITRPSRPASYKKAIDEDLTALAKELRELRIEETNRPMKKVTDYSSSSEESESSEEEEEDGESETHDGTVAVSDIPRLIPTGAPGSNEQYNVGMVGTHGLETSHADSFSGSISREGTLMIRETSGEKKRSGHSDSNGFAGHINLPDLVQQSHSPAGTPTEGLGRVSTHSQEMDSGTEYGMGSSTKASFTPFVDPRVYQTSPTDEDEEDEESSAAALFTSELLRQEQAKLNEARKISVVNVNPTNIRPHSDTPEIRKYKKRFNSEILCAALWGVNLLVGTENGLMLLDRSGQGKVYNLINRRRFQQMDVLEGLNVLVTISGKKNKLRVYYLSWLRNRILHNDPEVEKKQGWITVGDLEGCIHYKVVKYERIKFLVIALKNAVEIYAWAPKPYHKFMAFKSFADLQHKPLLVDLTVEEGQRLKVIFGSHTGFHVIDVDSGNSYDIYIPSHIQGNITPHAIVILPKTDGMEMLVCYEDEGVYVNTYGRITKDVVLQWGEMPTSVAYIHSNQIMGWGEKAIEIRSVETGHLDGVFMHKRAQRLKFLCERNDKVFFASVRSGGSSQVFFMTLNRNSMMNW

COc1ccc2[nH]c3c4[nH]c5ccc(OC)cc5c4c4c(c3c2c1)C(=O)NC4=O [GW296115]
Nanosyn % Inhibition at 1 μM [1]: 92%
inhibition at 1 µM [2]: 97.7%
TSA ΔTm at 10 μM (°C) [3]: 12.0 °C
BRSK2-induced phosphorylation of ULK1 S317 [4, 5]: decreased dose-dependently
pP62 S351 following BRSK2 overexpression [4, 5]: dose dependently downregulated
BRSK2-induced AMPK substrate phosphorylation (phospho-S/T AMPK substrate antibody) ([4]; HEK293T overexpressing wild-type BRSK2, 2.5 μM for 2 or 6 h): ablated
phosphorylation of BRSK2 at T174 ([4]; HEK293T overexpressing wild-type or K48A BRSK2): hyper-phosphorylated
phosphorylation at the LKB1 target site (T172) on AMPK ([4]; HEK293T, 2.5 μM for 2 or 6 h): did not inhibit
